Read-outs that look alike come from different tables or passages of the source.
Key:
[1] = test system: MLKL phosphorylation (pMLKL) in HT29-L23 cells; test: MLKL Phosphorylation High-Content Assay; format: cell-based; settings: necroptosis induced with human TNFα, SMAC mimetic and Z-VAD, 6 h, read-out: LE pMLKL HC IC50
Method in brief: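 HT29-L23 cells incubated 6 h at 37° C before detection of phospho-MLKL by immunostaining with anti-phospho-MLKL antibody (1:1000 in PBS/0.1% BSA, overnight at 4° C). Readout by high-content imaging with compartmental image analysis.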

[2] = target: T1, MDR1 P-glycoprotein (P-gp) (Homo sapiens, UniProt P08183); test: Transporter assay, bi-directional transport, MDCK-MDR1 cells; format: in vitro ADME; settings: human, MDCK-MDR1, 0.1 uM, basolateral to apical / apical to basolateral, >2 = substrate, read-out: PGP (efflux ratio)
T1 construct: host or cells: MDCK (MDCK-MDR1)
Experimental: (§1) Compounds were assessed as substrates of MDR1 P-glycoprotein (P-gp) and mouse Breast Cancer Resistance Protein (mBcrp) at 0.1 uM, for 2 hours, in bi-directional transport assays using recombinant MDCK cell lines as described previously (Feng et al. Drug Metabolism and Disposition 2008, Vol. 36:268-275). MDCK-MDR1 and MDCK-mBcrp cells were acquired from the National Institutes of Health (Bethesda, MID) and the Netherlands Cancer Institute respectively, and used under license agreement. Data are expressed as efflux ratios, where transport across the cell monolayer in the basolateral to apical direction is divided by transport in the apical to basolateral direction. Efflux ratios >2 indicate the test compound is a substrate of the transporter tested.

[3] = target: T2, mouse Breast Cancer Resistance Protein (mBcrp) (Mus musculus, UniProt Q7TMS5); test: Transporter assay, bi-directional transport, MDCK-mBcrp cells; format: in vitro ADME; settings: mouse, basolateral to apical / apical to basolateral, >2 = substrate, read-out: BCRP (efflux ratio)
T2 construct: host or cells: MDCK (MDCK-mBcrp)
T2 sequence (Q7TMS5 1-657): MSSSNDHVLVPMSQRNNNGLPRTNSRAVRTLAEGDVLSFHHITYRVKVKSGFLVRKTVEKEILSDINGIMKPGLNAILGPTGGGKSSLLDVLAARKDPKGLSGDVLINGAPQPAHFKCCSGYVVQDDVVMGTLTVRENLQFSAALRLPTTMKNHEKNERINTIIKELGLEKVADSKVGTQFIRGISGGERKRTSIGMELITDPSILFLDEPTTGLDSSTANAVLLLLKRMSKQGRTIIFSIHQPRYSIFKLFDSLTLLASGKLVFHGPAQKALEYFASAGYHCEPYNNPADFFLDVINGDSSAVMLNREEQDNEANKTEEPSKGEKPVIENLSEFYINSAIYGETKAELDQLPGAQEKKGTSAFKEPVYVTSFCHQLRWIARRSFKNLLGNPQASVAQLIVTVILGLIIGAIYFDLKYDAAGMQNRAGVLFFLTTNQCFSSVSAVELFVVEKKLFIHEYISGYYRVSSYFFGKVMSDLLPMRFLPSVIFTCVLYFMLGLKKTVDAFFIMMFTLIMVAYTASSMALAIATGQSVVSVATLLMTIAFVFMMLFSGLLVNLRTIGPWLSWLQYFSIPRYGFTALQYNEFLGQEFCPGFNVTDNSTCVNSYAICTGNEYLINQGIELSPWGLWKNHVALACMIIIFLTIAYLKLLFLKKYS
Experimental: as §1

T1 sequence (P08183 whole entry): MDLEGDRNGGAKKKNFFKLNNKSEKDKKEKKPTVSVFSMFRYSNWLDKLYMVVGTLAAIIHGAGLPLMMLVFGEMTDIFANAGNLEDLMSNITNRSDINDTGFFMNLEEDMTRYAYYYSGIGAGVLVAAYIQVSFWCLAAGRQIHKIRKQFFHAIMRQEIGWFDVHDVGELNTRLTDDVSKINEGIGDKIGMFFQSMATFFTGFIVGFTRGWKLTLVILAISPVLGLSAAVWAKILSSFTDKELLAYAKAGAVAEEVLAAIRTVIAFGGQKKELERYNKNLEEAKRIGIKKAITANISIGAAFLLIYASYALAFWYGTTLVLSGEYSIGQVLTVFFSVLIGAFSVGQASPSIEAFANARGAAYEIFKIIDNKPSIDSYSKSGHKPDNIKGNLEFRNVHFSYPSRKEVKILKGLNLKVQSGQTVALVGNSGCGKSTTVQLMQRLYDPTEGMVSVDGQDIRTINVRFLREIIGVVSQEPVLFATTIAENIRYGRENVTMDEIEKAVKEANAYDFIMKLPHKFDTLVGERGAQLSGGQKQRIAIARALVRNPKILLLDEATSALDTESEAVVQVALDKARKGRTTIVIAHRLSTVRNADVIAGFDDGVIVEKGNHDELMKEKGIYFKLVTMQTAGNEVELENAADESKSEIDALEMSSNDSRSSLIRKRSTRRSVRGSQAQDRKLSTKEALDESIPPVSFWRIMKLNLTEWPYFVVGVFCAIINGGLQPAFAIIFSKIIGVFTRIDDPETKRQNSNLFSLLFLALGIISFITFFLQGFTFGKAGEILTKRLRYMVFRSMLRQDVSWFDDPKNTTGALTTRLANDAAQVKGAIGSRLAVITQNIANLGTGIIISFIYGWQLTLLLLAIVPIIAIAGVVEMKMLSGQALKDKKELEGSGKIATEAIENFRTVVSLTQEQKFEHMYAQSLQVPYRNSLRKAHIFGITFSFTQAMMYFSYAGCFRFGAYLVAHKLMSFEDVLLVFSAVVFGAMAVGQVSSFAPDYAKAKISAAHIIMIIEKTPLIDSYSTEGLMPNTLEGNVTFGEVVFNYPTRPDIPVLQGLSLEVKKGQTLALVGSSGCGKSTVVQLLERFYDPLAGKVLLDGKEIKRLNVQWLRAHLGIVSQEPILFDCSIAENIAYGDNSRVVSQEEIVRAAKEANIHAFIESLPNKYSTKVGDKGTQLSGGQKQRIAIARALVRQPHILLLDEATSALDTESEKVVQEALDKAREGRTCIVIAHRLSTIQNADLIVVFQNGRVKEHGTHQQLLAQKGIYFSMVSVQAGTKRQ

Row | efflux ratio at 2 h, 0.1 uM [2] | efflux ratio at 2 h, 0.1 uM [3] | Compound | IC50 [1] [nM] | IC50 ([1]; Homo sapiens) [nM]
1 | 1.8 | 6.2 | CC(O)(c1ccc(F)cc1)C(F)(F)CCOc1cccc(-c2ccn3nc(N)nc3c2)c1F (single isomer, unassigned) [Example 2, 5-(3-(2-amino-[1,2,4]triazolo[1,5-a]pyridin-7-yl)-2-fluorophenoxy)-3,3-difluoro-2-(4-fluorophenyl)pentan-2-ol] | 4 | –
2 | 1.8 | 3.9 | [2H]C([2H])(CC(F)(F)C(C)(O)c1ccc(F)cc1)Oc1cccc(-c2ccn3nc(N)nc3c2)c1F (single isomer, unassigned) [Example 13, 5-(3-(2-amino-[1,2,4]triazolo[1,5-a]pyridin-7-yl)-2-fluorophenoxy)-3,3-difluoro-2-(4-fluorophenyl)pentan-5,5-d2-2-ol] | 0.1 | –
3 | 5.9 | 5.6 | CC(O)(c1ccc(F)cc1)C(F)(F)CCOc1ccc(Cl)c(-c2ccn3nc(N)nc3c2)n1 (single isomer, unassigned) [Example 80, 5-((6-(2-amino-[1,2,4]triazolo[1,5-a]pyridin-7-yl)-5-chloropyridin-2-yl)oxy)-3,3-difluoro-2-(4-fluorophenyl)pentan-2-ol] | 6.8 | –
4 | 1.5 | 1.7 | CC(O)(c1ccc(F)cc1)C(F)(F)CCOc1c(Cl)ccc(-c2ccn3nc(N)nc3c2)c1F (single isomer, unassigned) [Example 52, 5-(3-(2-amino-[1,2,4]triazolo[1,5-a]pyridin-7-yl)-6-chloro-2-fluorophenoxy)-3,3-difluoro-2-(4-fluorophenyl)pentan-2-ol] | 0.5 | –
5 | 1.5 | 4 | C[C@](O)(c1ccc(F)cc1)C(F)(F)CCOc1c(F)ccc(-c2ccn3nc(N)nc3c2)c1F (single isomer, unassigned) [Example 49, 5-(3-(2-amino-[1,2,4]triazolo[1,5-a]pyridin-7-yl)-2,6-difluorophenoxy)-3,3-difluoro-2-(4-fluorophenyl)pentan-2-ol] | – | 34
6 | 35 | 43 | Cc1ccc(-c2ccn3nc(N)nc3c2)c(F)c1C(=O)NCC(F)(F)C(O)c1ccc(F)cc1 (stereo not shown) [Example 30 from WO2022/086828, reference compound] | – | –
7 | 1.4 | 2.9 | [2H]C([2H])(CC(F)(F)C(C)(O)c1ccc(F)cc1)Oc1c(F)ccc(-c2ccn3nc(N)nc3c2)c1F (single isomer, unassigned) [Example 15, 5-(3-(2-amino-[1,2,4]triazolo[1,5-a]pyridin-7-yl)-2,6-difluorophenoxy)-3,3-difluoro-2-(4-fluorophenyl)pentan-5,5-d2-2-ol] | 0.3 | –
8 | – | – | Nc1nc2cc(-c3cccc(OCCC(F)C(O)c4ccc(F)cc4)c3F)ccn2n1 (single isomer, unassigned) [Example 85, 4-(3-(2-amino-[1,2,4]triazolo[1,5-a]pyridin-7-yl)-2-fluorophenoxy)-2-fluoro-1-(4-fluorophenyl)butan-1-ol] | 0.9 | –
9 | – | – | COc1cc(F)c(OCCC(F)(F)C(C)(O)c2ccc(F)cc2)c(F)c1-c1ccn2nc(N)nc2c1 (single isomer, unassigned) [Example 21, 5-(3-(2-amino-[1,2,4]triazolo[1,5-a]pyridin-7-yl)-2,6-difluoro-4-methoxyphenoxy)-3,3-difluoro-2-(4-fluorophenyl)pentan-2-ol] | 1.1 | –
10 | – | – | CC(O)(c1ccc(Cl)cc1)C(F)(F)CCOc1c(F)ccc(-c2ccn3nc(N)nc3c2)c1F (single isomer, unassigned) [Example 45, 5-(3-(2-amino-[1,2,4]triazolo[1,5-a]pyridin-7-yl)-2,6-difluorophenoxy)-2-(4-chlorophenyl)-3,3-difluoropentan-2-ol] | 80 | –
11 | – | – | CC(O)(c1cccc(F)c1)C(F)(F)CCOc1c(F)ccc(-c2ccn3nc(N)nc3c2)c1F (single isomer, unassigned) [Example 123, 5-(3-(2-amino-[1,2,4]triazolo[1,5-a]pyridin-7-yl)-2,6-difluorophenoxy)-3,3-difluoro-2-(3-fluorophenyl)pentan-2-ol] | 0.9 | –
12 | – | – | Nc1nc2cc(-c3ccc(Cl)c(OCCC(F)(F)C(O)c4ccc(F)cc4)c3F)ccn2n1 (single isomer, unassigned) [Example 60, 4-(3-(2-amino-[1,2,4]triazolo[1,5-a]pyridin-7-yl)-6-chloro-2-fluorophenoxy)-2,2-difluoro-1-(4-fluorophenyl)butan-1-ol] | 5 | –
13 | – | – | CC(C)CC(O)C(F)(F)CCOc1cccc(-c2ccn3nc(N)nc3c2)c1F (single isomer, unassigned) [Example 6, 1-(3-(2-amino-[1,2,4]triazolo[1,5-a]pyridin-7-yl)-2-fluorophenoxy)-3,3-difluoro-6-methylheptan-4-ol] | – | 80
14 | – | – | CC(O)(c1ccc(F)cn1)C(F)(F)CCOc1c(Cl)ccc(-c2ccn3nc(N)nc3c2)c1F (single isomer, unassigned) [Example 32, 5-(3-(2-amino-[1,2,4]triazolo[1,5-a]pyridin-7-yl)-6-chloro-2-fluorophenoxy)-3,3-difluoro-2-(5-fluoropyridin-2-yl)pentan-2-ol] | 30 | –
15 | – | – | CC(C)CC(O)C(F)(F)CCOc1cccc(-c2ccn3nc(N)nc3c2)c1F (single isomer, unassigned) [Example 7, 1-(3-(2-amino-[1,2,4]triazolo[1,5-a]pyridin-7-yl)-2-fluorophenoxy)-3,3-difluoro-6-methylheptan-4-ol] | 160 | –
16 | – | – | CC(O)(c1ccc(F)cc1)C(F)(F)CCOc1ccc(Cl)c(-c2ccn3nc(N)nc3c2)n1 (single isomer, unassigned) [Example 79, 5-((6-(2-amino-[1,2,4]triazolo[1,5-a]pyridin-7-yl)-5-chloropyridin-2-yl)oxy)-3,3-difluoro-2-(4-fluorophenyl)pentan-2-ol] | 160 | –
17 | – | – | Cc1ccc(-c2ccn3nc(N)nc3c2)c(F)c1OCCC(F)C(O)c1ccc(F)cc1 (single isomer, unassigned) [Example 109, 4-(3-(2-amino-[1,2,4]triazolo[1,5-a]pyridin-7-yl)-2-fluoro-6-methylphenoxy)-2-fluoro-1-(4-fluorophenyl)butan-1-ol] | 0.1 | –
18 | – | – | CC(O)(c1ccccc1)C(F)(F)CCOc1cccc(-c2ccn3nc(N)nc3c2)c1F (single isomer, unassigned) [Example 68, 5-(3-(2-amino-[1,2,4]triazolo[1,5-a]pyridin-7-yl)-2-fluorophenoxy)-3,3-difluoro-2-phenylpentan-2-ol] | – | 0.1
19 | – | – | CC(O)(c1cccc(F)c1)C(F)(F)CCOc1c(F)ccc(-c2ccn3nc(N)nc3c2)c1F (single isomer, unassigned) [Example 122, 5-(3-(2-amino-[1,2,4]triazolo[1,5-a]pyridin-7-yl)-2,6-difluorophenoxy)-3,3-difluoro-2-(3-fluorophenyl)pentan-2-ol] | 130 | –
20 | – | – | CC(O)(c1ccc(F)cc1)C(F)CCOc1cccc(-c2ccn3nc(N)nc3c2)c1F (single isomer, unassigned) [Example 91, 5-(3-(2-amino-[1,2,4]triazolo[1,5-a]pyridin-7-yl)-2-fluorophenoxy)-3-fluoro-2-(4-fluorophenyl)pentan-2-ol] | 0.3 | –
21 | – | – | CC(O)(c1cccnc1)C(F)(F)CCOc1c(F)ccc(-c2ccn3nc(N)nc3c2)c1F (single isomer, unassigned) [Example 36, 5-(3-(2-amino-[1,2,4]triazolo[1,5-a]pyridin-7-yl)-2,6-difluorophenoxy)-3,3-difluoro-2-(pyridin-3-yl)pentan-2-ol] | – | 5

Row | Compound | efflux ratio at 2 h, 0.1 uM [2] | efflux ratio at 2 h, 0.1 uM [3] | IC50 [1] [nM] | IC50 ([1]; Homo sapiens) [nM]
22 | Nc1nc2cc(-c3ccc(F)c(OCCC(F)(F)C(O)c4ccc(F)cn4)c3F)ccn2n1 (single isomer, unassigned) [Example 34, 4-(3-(2-amino-[1,2,4]triazolo[1,5-a]pyridin-7-yl)-2,6-difluorophenoxy)-2,2-difluoro-1-(5-fluoropyridin-2-yl)butan-1-ol] | 2.4 | 7 | – | 8

Reference: patent US20260217711A1, “TRIAZOLOPYRIDINYL ETHER LINKED COMPOUNDS AS KINASE INHIBITORS” (Bristol-Myers Squibb Company, priority 2023, published 2026)
